PubChem BioAssay AID2060616 (Molecular Pharmacology Branch, DTP, NCI, 2025)
Blank lines part the entries; values can stand above or below the compound they belong to.

Test system: 377384-186-R-J1-PDC complex spheroid viability
Experiment: Anticancer human tumor 377384-186-R-J1-PDC patient-derived pancreatic carcinoma cell line growth inhibition [CLK]
Settings: for IC50: curve of first compound; for viability, T/C: stronger effect = lower value
Summary of the method: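 Patient-derived tumor cells grown as complex spheroids with HUVEC endothelial cells and mesenchymal stem cells, treated with drug combinations. Concentrations descend in half-log steps from near clinical Cmax, or from 10 microM if Cmax unknown.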

[1] = second compound 0.0316 µM, first compound 0.0316 µM
[2] = second compound 0.0316 µM, first compound 0.1 µM
[3] = second compound 0.0316 µM, first compound 0.316 µM
[4] = second compound 0.0316 µM, first compound 1 µM
[5] = second compound 0.0316 µM, first compound 3.16 µM
[6] = second compound 0.0316 µM, first compound 10 µM
[7] = second compound 0.1 µM, first compound 0.0316 µM
[8] = second compound 0.1 µM, first compound 0.1 µM
[9] = second compound 0.1 µM, first compound 0.316 µM
[10] = second compound 0.1 µM, first compound 1 µM
[11] = second compound 0.1 µM, first compound 3.16 µM
[12] = second compound 0.1 µM, first compound 10 µM
[13] = second compound 0.316 µM, first compound 0.0316 µM
[14] = second compound 0.316 µM, first compound 0.1 µM
[15] = second compound 0.316 µM, first compound 0.316 µM
[16] = second compound 0.316 µM, first compound 1 µM
[17] = second compound 0.316 µM, first compound 3.16 µM
[18] = second compound 0.316 µM, first compound 10 µM
[19] = second compound 1 µM, first compound 0.0316 µM
[20] = second compound 1 µM, first compound 0.1 µM
[21] = second compound 1 µM, first compound 0.316 µM
[22] = second compound 1 µM, first compound 1 µM
[23] = second compound 1 µM, first compound 3.16 µM
[24] = second compound 1 µM, first compound 10 µM
[25] = second compound 3.16 µM, first compound 0.0316 µM
[26] = second compound 3.16 µM, first compound 0.1 µM
[27] = second compound 3.16 µM, first compound 0.316 µM
[28] = second compound 3.16 µM, first compound 1 µM
[29] = second compound 3.16 µM, first compound 3.16 µM
[30] = second compound 3.16 µM, first compound 10 µM
[31] = second compound 10 µM, first compound 0.0316 µM
[32] = second compound 10 µM, first compound 0.1 µM
[33] = second compound 10 µM, first compound 0.316 µM
[34] = second compound 10 µM, first compound 1 µM
[35] = second compound 10 µM, first compound 3.16 µM
[36] = second compound 10 µM, first compound 10 µM
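Note: spheroids exposed to agents for 7 days before reading.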
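Throughout, for viability, T/C: luminescence signal used as a stand-in for viable cells.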

IC50 (second compound 0.0316 µM): > 10 µM
IC50 (second compound 0.1 µM): > 10 µM
IC50 (second compound 0.316 µM): < 0.0316 µM
IC50 (second compound 1 µM): < 0.0316 µM
IC50 (second compound 3.16 µM): < 0.0316 µM
IC50 (second compound 10 µM): < 0.0316 µM
Structure (SMILES): CC1(C)CCC(CN2CCN(c3ccc(C(=O)NS(=O)(=O)c4ccc(NCC5CCOCC5)c([N+](=O)[O-])c4)c(Oc4cnc5[nH]ccc5c4)c3)CC2)=C(c2ccc(Cl)cc2)C1 + CNC(=O)c1ccc(Nc2nc(OC3CCCC3)c3c(-c4ccc5nc(C)oc5c4)c[nH]c3n2)c(OC)c1
viability, T/C [1]: 105%
viability, T/C [2]: 93.2%
viability, T/C [3]: 96.9%
viability, T/C [4]: 109%
viability, T/C [5]: 82.1%
viability, T/C [6]: 104%
viability, T/C [7]: 59.8%
viability, T/C [8]: 57.4%
viability, T/C [9]: 49.3%
viability, T/C [10]: 56.6%
viability, T/C [11]: 36.4%
viability, T/C [12]: 59.8%
viability, T/C [13]: 20.4%
viability, T/C [14]: 21.6%
viability, T/C [15]: 19.7%
viability, T/C [16]: 19%
viability, T/C [17]: 17.6%
viability, T/C [18]: 21.1%
viability, T/C [19]: 23.3%
viability, T/C [20]: 22.5%
viability, T/C [21]: 18.2%
viability, T/C [22]: 19.1%
viability, T/C [23]: 19.3%
viability, T/C [24]: 21.6%
viability, T/C [25]: 20.2%
viability, T/C [26]: 20.7%
viability, T/C [27]: 20%
viability, T/C [28]: 18.8%
viability, T/C [29]: 21.9%
viability, T/C [30]: 20.9%
viability, T/C [31]: 20.2%
viability, T/C [32]: 21.6%
viability, T/C [33]: 21.2%
viability, T/C [34]: 20.1%
viability, T/C [35]: 19.2%
viability, T/C [36]: 21.3%

IC50 (second compound 0.0316 µM): 2.6 µM
IC50 (second compound 0.1 µM): 0.232 µM
IC50 (second compound 0.316 µM): < 0.0316 µM
IC50 (second compound 1 µM): < 0.0316 µM
IC50 (second compound 3.16 µM): < 0.0316 µM
IC50 (second compound 10 µM): < 0.0316 µM
Structure (SMILES): CC1COCCN1c1cc(C2(S(C)(=N)=O)CC2)nc(-c2ccnc3[nH]ccc23)n1 (stereo unspecified) + CNC(=O)c1ccc(Nc2nc(OC3CCCC3)c3c(-c4ccc5nc(C)oc5c4)c[nH]c3n2)c(OC)c1
viability, T/C [1]: 105%
viability, T/C [2]: 110%
viability, T/C [3]: 106%
viability, T/C [4]: 83.5%
viability, T/C [5]: 43.5%
viability, T/C [6]: 17.4%
viability, T/C [7]: 62.4%
viability, T/C [8]: 56.8%
viability, T/C [9]: 52%
viability, T/C [10]: 41.1%
viability, T/C [11]: 23.7%
viability, T/C [12]: 19.9%
viability, T/C [13]: 21.3%
viability, T/C [14]: 23.4%
viability, T/C [15]: 18.6%
viability, T/C [16]: 16.9%
viability, T/C [17]: 13.8%
viability, T/C [18]: 9.16%
viability, T/C [19]: 20.6%
viability, T/C [20]: 20.9%
viability, T/C [21]: 22.3%
viability, T/C [22]: 17.9%
viability, T/C [23]: 12%
viability, T/C [24]: 7.93%
viability, T/C [25]: 20.2%
viability, T/C [26]: 21.2%
viability, T/C [27]: 20.6%
viability, T/C [28]: 18.9%
viability, T/C [29]: 14.1%
viability, T/C [30]: 9.68%
viability, T/C [31]: 20.4%
viability, T/C [32]: 19%
viability, T/C [33]: 21.5%
viability, T/C [34]: 19.4%
viability, T/C [35]: 12.4%
viability, T/C [36]: 9.21%

Structure (SMILES): CC(CO)NC(=O)c1cc(-c2ccc(Cl)cc2)nn(-c2cnn(C)c2)c1=O (stereo unspecified) + CN1CCN(c2cc(C(=O)Nc3cc4cc(-c5cnn(C)c5)ccc4cn3)ccn2)CC1
IC50 (second compound 0.0316 µM): > 10 µM
IC50 (second compound 0.1 µM): > 10 µM
IC50 (second compound 0.316 µM): < 0.0316 µM
IC50 (second compound 1 µM): < 0.0316 µM
IC50 (second compound 3.16 µM): < 0.0316 µM
IC50 (second compound 10 µM): < 0.0316 µM
viability, T/C [1]: 104%
viability, T/C [2]: 118%
viability, T/C [3]: 101%
viability, T/C [4]: 93.5%
viability, T/C [5]: 82.3%
viability, T/C [6]: 51.5%
viability, T/C [7]: 107%
viability, T/C [8]: 105%
viability, T/C [9]: 85.5%
viability, T/C [10]: 101%
viability, T/C [11]: 77.7%
viability, T/C [12]: 57%
viability, T/C [13]: 33.6%
viability, T/C [14]: 30.6%
viability, T/C [15]: 27.8%
viability, T/C [16]: 31.3%
viability, T/C [17]: 31.9%
viability, T/C [18]: 29.1%
viability, T/C [19]: 1.54%
viability, T/C [20]: 1.76%
viability, T/C [21]: 1.91%
viability, T/C [22]: 1.77%
viability, T/C [23]: 2.49%
viability, T/C [24]: 2.71%
viability, T/C [25]: 0.34%
viability, T/C [26]: 1%
viability, T/C [27]: 0.42%
viability, T/C [28]: 0.4%
viability, T/C [29]: 0.66%
viability, T/C [30]: 0.95%
viability, T/C [31]: 0.55%
viability, T/C [32]: 0.43%
viability, T/C [33]: 0.69%
viability, T/C [34]: 0.78%
viability, T/C [35]: 0.94%
viability, T/C [36]: 0.42%
